Four compounds from patent US10584317B2 (priority 2006, dated 2020) can be followed below.

“Also recorded” adds a separate entry of the source. Read-outs that look alike come from different tables or passages of the source.

Data set [1] concerns GI-101A tumors. The arrangement: species or system nude mice. Particulars: mouse, in vivo.
Data set [2] relates to PANC-1 tumors. In kind it is in vivo, nude mice.
Data set [3] has as its system A549 tumors. The arrangement: species or system nude mice. As to conditions: mouse, in vivo.
In data set [4] the test system is PANC-1 tumors. More on the design: species or system nude mice. As to conditions: mouse, in vivo.
Data set [5] relates to GLV-1h71. In kind it is cell-based, vaccinia virus.
The subject of data set [6] is GI-101A tumors. As to conditions: mouse, in vivo.
In data set [7] the test system is GLV-1h68. The data set is classed as cell-based, vaccinia virus.
Data set [8] deals with GLV-1h73. In kind it is cell-based, vaccinia virus.
Data set [9] deals with GLV-1h74. The data set is classed as cell-based, vaccinia virus.

Turning to `N.N.[Cl][Pt][Cl]` [Cisplatin, cis-diamminedichloroplatinum], the “Effect on tumor growth” value in data set [1] is given as “decreased the rate of tumor growth, but did not shrink tumors”; in data set [2] (PANC-1), “unable to arrest tumor growth”. Besides, the Median tumor volume in [2] (day 36 post-implantation) is given as 170.2 mm^3; in data set [2] (day 46), 296.6 mm^3; in data set [2] (day 52), 254.95 mm^3; in data set [2] (day 57), 326.2 mm^3; in data set [2] (day 63) it was 460.3 mm^3; in [2] (day 72) it was 663.4 mm^3. The Median tumor volume is 1022.0 mm^3 in data set [2] (day 79), 1718.3 mm^3 in data set [2] (day 86), 2520.4 mm^3 in data set [2] (day 94) and 3254.1 mm^3 in [2] (day 100).

Consider `COc1cccc2c1C(=O)c1c(O)c3c(c(O)c1C2=O)C[C@@](O)(C(=O)CO)C[C@@H]3O[C@H]1C[C@H](N)[C@H](O)[C@H](C)O1` [Doxorubicin, doxorubicin], for which the “Effect on tumor growth” value in [1] was “did not have any effect on the rate of tumor growth”.

For `Nc1ccn([C@@H]2O[C@H](CO)[C@@H](O)C2(F)F)c(=O)n1` [Gemcitabine], the “Effect on tumor growth” value in data set [3] is on record as “increased tumor growth”; in data set [4] it was “moderately decreased tumor growth”.

Take `Nc1ccn(C[C@@H](CO)OCP(=O)(O)O)c(=O)n1` [cidofovir]: in data set [5], the “Plaque formation by GLV-1h71” value is “smaller plaques; also recorded: almost completely inhibited” and the “Size or number of plaques of GLV-1h71 vs control” value is “no significant differences”. In addition, in data set [6], the “Interference with tumor therapy by the virus” value is given as “did not significantly interfere” and the “Survival time of GLV-1h74 injected mice” value is on record as “significantly extended”. In data set [7], the “Plaque formation by GLV-1h68” value is given as “smaller plaques; also recorded: almost completely inhibited” and the “Size or number of plaques of GLV-1h68 vs control” value is on record as “no significant differences”. Further, in data set [8], the “Number and size of plaques of GLV-1h73” value is reported as “significantly reduced”; the “Plaque formation by GLV-1h73” value was “smaller plaques”; the “Size or number of plaques of GLV-1h73 vs control” value was “no significant differences”. Further, in data set [9], the “Number and size of plaques of GLV-1h74” value was “significantly reduced”; the “Plaque formation by GLV-1h74” value was “smaller plaques”; the “Size or number of plaques of GLV-1h74 vs control” value is “no significant differences”.
